Values of other authors, collected in patent publication US7025979B2, “Male contraceptive formulation comprising norethisterone” (Schering AG, priority 2000, dated 2006).

Experiments:
[1] = system: spermatogenesis; details: use of the progestin; literature (Merrigiola et al, Bebb et al)
[2] = in higher doses; literature (Merrigiola et al, Bebb et al)

Row | Structure (SMILES) | suppression of spermatogenesis [1] | red blood cell count [2]
1 | CC(=O)O[C@]1(C(C)=O)CC[C@H]2[C@@H]3C=C(Cl)C4=CC(=O)[C@@H]5C[C@@H]5[C@]4(C)[C@H]3CC[C@@]21C [cyproterone acetate] | ineffective in the suppression of spermatogenesis | significant decreases in red blood cell count
2 | C#C[C@]1(O)CC[C@H]2[C@@H]3CCC4=CC(=O)CC[C@@H]4[C@H]3CC[C@@]21CC [levonorgestrel] |  | significant decreases in red blood cell count
